The source of these data is the OligoGym collection.

The series concerns the target ATXN3. The experiment in a line: mouse, dose not given. The conditions noted are these: ASO.

HELM strings list units from the 5' end as sugar, base in round brackets, then linkage (d deoxyribose, r ribose, m 2'-O-methyl, p phosphodiester). Strings are as the collection lists them; they lack the last nucleoside at the 3' end of the tested compound. [moe] = 2'-O-(2-methoxyethyl) (MOE); [sp] = phosphorothioate linkage; [m5C] = 5-methylcytosine

“RNA1{[moe](G)[sp].[moe]([m5C])p.[moe](A)p.[moe]([m5C])p.[moe](A)p.[moe](T)p.d(T)[sp].d(T)[sp].d(T)[sp].d(T)[sp].d(T)[sp].d(A)[sp].d(T)[sp].d(A)[sp].d(G)[sp].d(A)[sp].[moe](G)p.[moe](T)[sp].[moe](T)}$$$$ (last 3' nucleoside missing)” returned a 3 h FOB score of 1 score 0-7.
Consider “RNA1{[moe](G)[sp].[moe]([m5C])p.[moe](A)p.[moe]([m5C])p.[moe](A)p.[moe]([m5C])p.d(T)[sp].d(T)[sp].d(T)[sp].d([m5C])[sp].d([m5C])[sp].d(T)[sp].d([m5C])[sp].d([m5C])[sp].d(T)[sp].d([m5C])[sp].[moe](A)p.[moe](A)[sp].[moe](T)}$$$$ (last 3' nucleoside missing)”, for which the 3 h FOB score is 0 score 0-7.
Next, “RNA1{[moe](G)[sp].[moe]([m5C])p.[moe](A)p.[moe]([m5C])p.[moe]([m5C])p.[moe](A)p.d(T)[sp].d(A)[sp].d(T)[sp].d(A)[sp].d(T)[sp].d(A)[sp].d(T)[sp].d([m5C])[sp].d(T)[sp].d([m5C])[sp].[moe](A)p.[moe](G)[sp].[moe](A)}$$$$ (last 3' nucleoside missing)”: 0.25 score 0-7.
“RNA1{[moe](G)[sp].[moe]([m5C])p.[moe](A)p.[moe]([m5C])p.[moe]([m5C])p.d(A)[sp].d(T)[sp].d(A)[sp].d(T)[sp].d(A)[sp].d(T)[sp].d(A)[sp].d(T)[sp].d([m5C])[sp].d(T)[sp].[moe]([m5C])p.[moe](A)p.[moe](G)[sp].[moe](A)}$$$$ (last 3' nucleoside missing)” came in with a 3 h FOB score of 1 score 0-7.
With “RNA1{[moe](G)[sp].[moe]([m5C])p.[moe](T)[sp].[moe]([m5C])[sp].[moe](A)[sp].d(T)[sp].d(T)[sp].d(T)[sp].d(A)[sp].d(T)[sp].d(T)[sp].d([m5C])[sp].d(T)[sp].d([m5C])[sp].d(A)[sp].[moe](A)[sp].[moe](G)p.[moe](T)[sp].[moe](A)}$$$$ (last 3' nucleoside missing)” the figure was 2 score 0-7.
With “RNA1{[moe](G)[sp].[moe]([m5C])p.[moe](T)p.[moe](A)p.[moe](T)[sp].d(A)[sp].d(A)[sp].d(T)[sp].d(T)[sp].d([m5C])[sp].d(T)[sp].d(T)[sp].d(G)[sp].d([m5C])[sp].d(T)[sp].[moe](T)p.[moe]([m5C])p.[moe](A)[sp].[moe](A)}$$$$ (last 3' nucleoside missing)” the figure was 1.75 score 0-7.
Next, “RNA1{[moe](G)[sp].[moe]([m5C])p.[moe](T)p.[moe]([m5C])p.[moe](A)p.[moe](T)p.d(T)[sp].d(T)[sp].d(A)[sp].d(T)[sp].d(T)[sp].d([m5C])[sp].d(T)[sp].d([m5C])[sp].d(A)[sp].d(A)[sp].[moe](G)p.[moe](T)[sp].[moe](A)}$$$$ (last 3' nucleoside missing)”: 0 score 0-7.
On to “RNA1{[moe](G)[sp].[moe]([m5C])p.[moe](T)p.[moe]([m5C])p.[moe](A)p.d(T)[sp].d(T)[sp].d(T)[sp].d(A)[sp].d(T)[sp].d(T)[sp].d([m5C])[sp].d(T)[sp].d([m5C])[sp].d(A)[sp].[moe](A)p.[moe](G)p.[moe](T)[sp].[moe](A)}$$$$ (last 3' nucleoside missing)”, for which the 3 h FOB score turned out to be 1 score 0-7.
As for “RNA1{[moe](G)[sp].[moe]([m5C])p.[moe]([m5C])[sp].[moe](A)[sp].[moe](A)[sp].d(A)[sp].d(A)[sp].d(T)[sp].d(A)[sp].d([m5C])[sp].d(T)[sp].d(A)[sp].d(A)[sp].d([m5C])[sp].d(A)[sp].[moe](T)[sp].[moe]([m5C])p.[moe](A)[sp].[moe](G)}$$$$ (last 3' nucleoside missing)”, the 3 h FOB score amounted to 2.5 score 0-7.
In turn, “RNA1{[moe](G)[sp].[moe]([m5C])p.[moe]([m5C])p.[moe](A)p.[moe](A)[sp].d(T)[sp].d(A)[sp].d(T)[sp].d(T)[sp].d(T)[sp].d(A)[sp].d(T)[sp].d(A)[sp].d(G)[sp].d(G)[sp].[moe](T)p.[moe](G)p.[moe]([m5C])[sp].[moe](T)}$$$$ (last 3' nucleoside missing)” came in with a 3 h FOB score of 3 score 0-7.
In turn, “RNA1{[moe](G)[sp].[moe]([m5C])p.[moe]([m5C])p.[moe](A)p.[moe](A)p.d(T)[sp].d(A)[sp].d(T)[sp].d(T)[sp].d(T)[sp].d(A)[sp].d(T)[sp].d(A)[sp].d(G)[sp].d(G)[sp].[moe](T)p.[moe](G)p.[moe]([m5C])[sp].[moe](T)}$$$$ (last 3' nucleoside missing)” registered a 3 h FOB score of 1.5 score 0-7.
For the substance “RNA1{[moe](G)[sp].[moe]([m5C])p.[moe]([m5C])p.[moe](A)p.[moe](T)p.[moe](T)p.d(A)[sp].d(A)[sp].d(T)[sp].d([m5C])[sp].d(T)[sp].d(A)[sp].d(T)[sp].d(A)[sp].d([m5C])[sp].d(T)[sp].[moe](G)p.[moe](A)[sp].[moe](A)}$$$$ (last 3' nucleoside missing)”, the 3 h FOB score was 0 score 0-7.
Next, “RNA1{[moe](G)[sp].[moe]([m5C])p.[moe]([m5C])p.[moe](A)p.[moe](T)p.d(T)[sp].d(A)[sp].d(A)[sp].d(T)[sp].d([m5C])[sp].d(T)[sp].d(A)[sp].d(T)[sp].d(A)[sp].d([m5C])[sp].[moe](T)p.[moe](G)p.[moe](A)[sp].[moe](A)}$$$$ (last 3' nucleoside missing)”: 1 score 0-7.
Next, “RNA1{[moe](T)[sp].[moe](A)[sp].[moe](A)p.[moe](T)p.[moe](A)[sp].d([m5C])[sp].d(T)[sp].d(T)[sp].d(T)[sp].d(T)[sp].d(T)[sp].d([m5C])[sp].d([m5C])[sp].d(A)[sp].d(G)[sp].[moe]([m5C])p.[moe]([m5C])p.[moe](T)[sp].[moe](T)}$$$$ (last 3' nucleoside missing)”: 1.5 score 0-7; “RNA1{[moe](T)[sp].[moe](A)p.[moe](A)p.[moe](T)p.[moe](A)[sp].d([m5C])[sp].d(T)[sp].d(T)[sp].d(U)[sp].d(T)[sp].d(T)[sp].d([m5C])[sp].d([m5C])[sp].d(A)[sp].d(G)[sp].[moe]([m5C])p.[moe]([m5C])p.[moe](T)[sp].[moe](T)}$$$$ (last 3' nucleoside missing)”: 1 score 0-7; “RNA1{[moe](T)[sp].[moe](A)p.[moe](A)p.[moe](T)p.[moe](A)[sp].d([m5C])[sp].d(U)[sp].d(T)[sp].d(T)[sp].d(T)[sp].d(T)[sp].d([m5C])[sp].d([m5C])[sp].d(A)[sp].d(G)[sp].[moe]([m5C])p.[moe]([m5C])p.[moe](T)[sp].[moe](T)}$$$$ (last 3' nucleoside missing)”: 1 score 0-7.
Next, “RNA1{[moe](T)[sp].[moe](A)p.[moe](A)p.[moe](T)p.[moe](A)p.[moe]([m5C])p.d(T)[sp].d(T)[sp].d(T)[sp].d(T)[sp].d(T)[sp].d([m5C])[sp].d([m5C])[sp].d(A)[sp].d(G)[sp].d([m5C])[sp].[moe]([m5C])p.[moe](T)[sp].[moe](T)}$$$$ (last 3' nucleoside missing)”: 3 score 0-7; “RNA1{[moe](T)[sp].[moe](A)p.[moe](A)p.[moe](T)p.[moe](T)[sp].d([m5C])[sp].d(T)[sp].d(T)[sp].d(G)[sp].d([m5C])[sp].d(T)[sp].d(T)[sp].d([m5C])[sp].d(A)[sp].d(A)[sp].[moe]([m5C])p.[moe]([m5C])p.[moe](A)[sp].[moe](T)}$$$$ (last 3' nucleoside missing)”: 1.38 score 0-7; “RNA1{[moe](T)[sp].[moe](G)[sp].[moe](G)p.[moe]([m5C])p.[moe](A)[sp].d([m5C])[sp].d(A)[sp].d(T)[sp].d(T)[sp].d(T)[sp].d(T)[sp].d(T)[sp].d(T)[sp].d(A)[sp].d(T)[sp].[moe](A)p.[moe](G)p.[moe](A)[sp].[moe](G)}$$$$ (last 3' nucleoside missing)”: 3.25 score 0-7.
With “RNA1{[moe](T)[sp].[moe](G)[sp].[moe](T)p.[moe](T)p.[moe](A)[sp].d(A)[sp].d(T)[sp].d(A)[sp].d([m5C])[sp].d(T)[sp].d(T)[sp].d(T)[sp].d(T)[sp].d(T)[sp].d([m5C])[sp].[moe]([m5C])p.[moe](A)p.[moe](G)[sp].[moe]([m5C])}$$$$ (last 3' nucleoside missing)”, the 3 h FOB score was determined as 1 score 0-7.
With “RNA1{[moe](T)[sp].[moe](G)[sp].[moe]([m5C])p.[moe](T)p.[moe]([m5C])[sp].d(A)[sp].d(T)[sp].d(T)[sp].d(T)[sp].d(A)[sp].d(T)[sp].d(T)[sp].d([m5C])[sp].d(T)[sp].d([m5C])[sp].[moe](A)p.[moe](A)p.[moe](G)[sp].[moe](T)}$$$$ (last 3' nucleoside missing)” the figure was 1 score 0-7; with “RNA1{[moe](T)[sp].[moe](G)p.[moe](A)[sp].[moe](G)[sp].[moe]([m5C])[sp].d([m5C])[sp].d(A)[sp].d(A)[sp].d(T)[sp].d(A)[sp].d(T)[sp].d(T)[sp].d(T)[sp].d(A)[sp].d(T)[sp].[moe](A)[sp].[moe](G)p.[moe](G)[sp].[moe](T)}$$$$ (last 3' nucleoside missing)”, 4 score 0-7; with “RNA1{[moe](T)[sp].[moe](G)p.[moe](G)[sp].[moe]([m5C])[sp].[moe](A)[sp].d([m5C])[sp].d(A)[sp].d(T)[sp].d(T)[sp].d(T)[sp].d(T)[sp].d(T)[sp].d(T)[sp].d(A)[sp].d(T)[sp].[moe](A)[sp].[moe](G)p.[moe](A)[sp].[moe](G)}$$$$ (last 3' nucleoside missing)”, 6 score 0-7.
Substance “RNA1{[moe](T)[sp].[moe](G)p.[moe](G)p.[moe](A)p.[moe](A)[sp].d([m5C])[sp].d(T)[sp].d(A)[sp].d([m5C])[sp].d([m5C])[sp].d(T)[sp].d(T)[sp].d(G)[sp].d([m5C])[sp].d(A)[sp].[moe](T)p.[moe](A)p.[moe]([m5C])[sp].[moe](T)}$$$$ (last 3' nucleoside missing)” returned a 3 h FOB score of 5.38 score 0-7.
With “RNA1{[moe](T)[sp].[moe](G)p.[moe](G)p.[moe](T)p.[moe](T)[sp].d(T)[sp].d(T)[sp].d([m5C])[sp].d(T)[sp].d([m5C])[sp].d(A)[sp].d(T)[sp].d(T)[sp].d(T)[sp].d(T)[sp].[moe](T)p.[moe](A)p.[moe](T)[sp].[moe](A)}$$$$ (last 3' nucleoside missing)” the figure was 0 score 0-7.
